Data: publication PMC5494507, “γ‐Secretase inhibitors in cancer clinical trials are pharmacologically and functionally distinct” (EMBO Molecular Medicine, 2017)

Assays:
[1] = system: rAPPC100sub and rNOTCH1‐4subs; assay: Cell-free γ-secretase assay, rAPPC100sub and rNOTCH1-4subs (IP-MS); format: biochemical, human; settings: 25 nM
Description: cDNAs encoding NOTCH1, NOTCH2, NOTCH3, NOTCH4, CD44, and VEGFR1 γ‐secretase substrates were generated by gene synthesis conducted by Genscript (Piscataway, NJ, USA). The general design of the constructs was similar to a recombinant substrate (APP C100) that has been used by our group and others to assay Aβ production in in vitro γ‐secretase assays. All constructs contain an NH2‐terminal amyloid β peptide (Aβ) epitope tag followed by the juxtamembrane region (JMD) of the given substrate and a FLAG tag ([…]) at the COOH‐terminal. A schematic representation of the substrates is provided in Fig 1A, and sequences of the cDNAs and the proteins are provided in Appendix Fig S5. For clarity, these substrates are referred to as recombinant substrates (e.g., Notch1 is rNOTCH1sub). Substrate cDNAs were cloned into pET21 (Novagen, Billerica, MA, USA) for expression in bacterial cells.
pET21 plasmids containing the substrate cDNAs were transformed into BL21 E. coli. cells. Overexpression was induced with 0.5 mM isopropyl β‐D‐1‐thiogalactopyranoside (IPTG). […]
Immunoprecipitation and mass spectrometry of Aβ and Aβ‐like peptides in cell‐free assay or conditioned media were performed as previously described (Ran et al, 2014). […] Samples were analyzed using a Bruker Microflex LRF‐MALDI‐TOF mass spectrometer.

[2] = system: MDA‐MB‐231 and MDA‐MB‐468 mammospheres; assay: Secondary mammosphere formation / limiting dilution assay and CD44+CD24low flow cytometry; format: cell-based
Description: Suppression of breast cancer stem cells is thought to be a key mechanism of action for the anti‐tumor activity of GSIs in breast cancer models and in patient‐derived mammospheres (Takebe et al, 2015). […] Stem‐like cells are enriched in secondary mammospheres, but their number declines after four to five passages (Dontu et al, 2003; Dey et al, 2009). Therefore, we compared the GSIs in a secondary mammosphere formation assay at 1, 5, and 10 μM concentrations (Fig 7A and B for 10 μM and Appendix Fig S4 for 1 and 5 μM). We separately counted large mammospheres (> 500 μm in diameter) and small mammospheres (100–500 μm in diameter).
For limiting dilution assay, we used two distinct TNBC cell lines. MDA‐MB‐231 is molecularly “Mesenchymal”, PTEN wild type. MDA‐MB‐468 (ATCC, Manassas, VA) is molecularly “Basal‐like” and PTEN null. GSI‐treated (1, 5, and 10 μM twice/week, for 1 week) mammospheres were dissociated by trypsinization, and equal numbers of viable cells were re‐plated at clonal density (1,000, 100, and 10 cells) without GSIs. After 7‐day incubation, large mammospheres (> 500 μm) and small mammospheres (100–500 μm) were counted manually using a Nikon Eclipse Microscope. Next, we investigated whether PF‐3084014 selectively affected cancer stem‐like cells (CSCs) using both MDA‐MB‐231 and MDA‐MB‐468 cell lines. Mammospheres were treated with increasing concentration of PF‐3084014 for 1 week, and CSCs (CD44^+CD24^low) (Azzam et al, 2013) were analyzed by flow cytometry using anti‐human PE‐CD44 (Clone G44‐26) and FITC‐CD24 (Clone ML5) (BD Biosciences) antibody.

Row | Structure (SMILES) | cleavage of the rAPPC100sub and rNOTCH1‐4subs [1] | absolute cell counts of mammospheres ([2]; 5 and 10 μM, both cell lines) | percentage of CD44+CD24low cells ([2]; all concentrations tested, flow cytometry) | total cell number and CSC fraction ([2]; both cell lines, 1 week treatment) | absolute numbers of CD44+CD24low cells ([2]; flow cytometry)
1 | CN1C(=O)[C@@H](NC(=O)[C@H](CCC(F)(F)F)[C@H](CCC(F)(F)F)C(N)=O)N=C(c2ccccc2)c2ccccc21 [BMS‐906024] | completely blocked cleavage |  |  |  | 
2 | CCC[C@H](N[C@H]1CCc2cc(F)cc(F)c2C1)C(=O)Nc1cn(C(C)(C)CNCC(C)(C)C)cn1 [PF‐3084014] |  | significantly more potent than the other compounds | decrease in percentage | decreased the total cell number and the CSC fraction | dose‐dependent decrease
